Reference: ChEMBL document CHEMBL1201862, “PubChem BioAssay data set” (2004)
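Where inhibition never reached the appropriate level, the endpoint shown equals the highest concentration tested. Otherwise, values were interpolated linearly from a five-concentration, 48-hour dose response in 96-well plates. The concentration for 50% growth inhibition is given as GI50.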 Calls of active or inactive are those of the source. No stated cut-off is given here; in the data, active = GI50 up to about 1.1 µM and inactive = higher.

Key:
Assay in all cases: NCI-60 cell line screen, 48 h
[1] = tested on: DLD-1
[2] = tested on: SK-MEL-5
[3] = tested on: RPMI-8226
[4] = tested on: M14
[5] = tested on: SK-MEL-28
[6] = tested on: M19-MEL
[7] = tested on: HOP-92
[8] = tested on: ACHN
[9] = tested on: 786-0
[10] = tested on: HCT-116
[11] = tested on: SF-268
[12] = tested on: SF-539
[13] = tested on: OVCAR-5
[14] = tested on: HCC 2998
[15] = tested on: TK-10
[16] = tested on: A498
[17] = tested on: SN12C
[18] = tested on: SK-OV-3

Measured: GI50

NCCCOc1ccc([N+](=O)[O-])cc1Cl
inactive: [1] > 100 µM | [2] > 100 µM | [3] 51.8 µM | [4] > 100 µM | [5] > 100 µM | [6] > 100 µM | [7] 68.9 µM | [8] > 100 µM | [9] > 100 µM | [10] > 100 µM | [11] > 100 µM | [12] > 100 µM | [13] > 100 µM | [14] > 100 µM | [15] > 100 µM

COc1ccc(NC(=O)CC(=O)N2N=C(N(CCC#N)c3ccccc3Cl)CC2c2ccccc2)cc1 (stereo unspecified)
inactive: [1] > 100 µM | [2] > 100 µM | [3] > 100 µM | [16] > 100 µM | [4] > 100 µM | [5] > 100 µM | [6] > 100 µM | [7] > 100 µM | [17] > 100 µM | [8] > 100 µM | [9] > 100 µM | [10] > 100 µM | [11] > 100 µM | [12] > 100 µM | [13] > 100 µM | [14] > 100 µM | [15] > 100 µM

O=C(O)C1=Cc2cccc3cccc(c23)C1=O
inactive: [1] > 100 µM | [2] > 100 µM | [3] > 100 µM | [16] 24.3 µM | [4] > 100 µM | [5] > 100 µM | [6] > 100 µM | [17] > 100 µM | [8] > 100 µM | [9] > 100 µM | [10] > 100 µM | [11] > 100 µM | [13] > 100 µM | [14] > 100 µM | [15] > 100 µM | [18] > 100 µM

Cc1cc(Cl)ccc1NC(=O)C1C(=O)N(c2ccc(Cl)cc2C)C(=O)/C1=N\NC(N)=S (stereo unspecified)
inactive: [1] 35.3 µM | [2] 32.7 µM | [3] 44.8 µM | [16] 23.6 µM | [4] 28.2 µM | [5] > 10 µM | [6] 37.4 µM | [7] 23.7 µM | [17] 27.4 µM | [8] 36.2 µM | [9] 32.6 µM | [10] 21.9 µM | [11] 35.6 µM | [12] 26.1 µM | [13] 24.3 µM | [14] 20.8 µM | [15] 47.9 µM

O=C1C(Cl)=C(NCCOCCO)C(=O)c2c(O)ccc(O)c21
inactive: [1] 2.13 µM | [2] 1.96 µM | [3] 3.1 µM | [4] 11.2 µM | [6] 1.81 µM | [7] 24.3 µM | [17] 11 µM | [8] 15.4 µM | [9] 4.97 µM | [10] 2.86 µM | [12] 4.53 µM | [13] 19.5 µM | [15] 13.6 µM | [18] 17.3 µM

O=C1C=C(c2[nH]c3ccccc3c2C2=CC(=O)c3ccccc3C2=O)C(=O)c2ccccc21
inactive: [1] 57.1 µM | [2] 31.7 µM | [3] 33 µM | [16] > 100 µM | [4] 68.7 µM | [5] 57 µM | [6] 17.3 µM | [8] 44.9 µM | [9] > 100 µM | [11] 34.4 µM | [12] 34.8 µM | [13] > 100 µM | [15] 94.4 µM | [18] 54.1 µM

COc1cc(C=C2C(=O)OC(C)(C)OC2=O)cc(OC)c1OC
inactive: [1] > 100 µM | [2] > 100 µM | [3] > 100 µM | [4] > 100 µM | [5] > 100 µM | [6] > 100 µM | [7] > 100 µM | [17] > 100 µM | [8] > 100 µM | [9] > 100 µM | [10] > 100 µM | [11] > 100 µM | [12] > 100 µM | [13] > 100 µM | [14] > 100 µM | [15] > 100 µM | [18] > 100 µM

C=CCCCN1CCCCC1=S
inactive: [1] > 100 µM | [2] > 100 µM | [3] > 100 µM | [4] > 100 µM | [5] > 100 µM | [6] > 100 µM | [7] > 100 µM | [17] > 100 µM | [8] > 100 µM | [9] > 100 µM | [10] > 100 µM | [12] > 100 µM | [13] > 100 µM | [14] > 100 µM | [15] > 100 µM | [18] 63.4 µM

Cc1ccc(Cl)c2c(=O)cc(-c3ccccc3)[nH]c12
inactive: [1] > 100 µM | [2] 37.8 µM | [3] 40.8 µM | [4] 43 µM | [5] > 100 µM | [6] 68.7 µM | [7] 38.8 µM | [17] 56.4 µM | [8] 42.3 µM | [9] > 100 µM | [10] 58.5 µM | [11] 58.6 µM | [12] 80.2 µM | [13] 71.6 µM | [15] 70.6 µM | [18] > 100 µM

O=C(O)C(CO)NC(=O)n1c2ccccc2c2ccccc21 (stereo unspecified)
inactive: [1] > 100 µM | [2] > 100 µM | [3] > 100 µM | [5] > 100 µM | [6] > 100 µM | [7] > 100 µM | [17] > 100 µM | [8] > 100 µM | [9] > 100 µM | [10] > 100 µM | [11] > 100 µM | [12] > 100 µM | [14] > 100 µM | [15] > 100 µM | [18] > 100 µM

CC1=C(C(=O)Nc2ccccc2C)C(c2ccco2)C(C(=O)Nc2ccccc2C)=C(C)N1C
inactive: [1] > 100 µM | [2] > 100 µM | [3] > 100 µM | [4] > 100 µM | [5] > 100 µM | [6] > 100 µM | [7] > 100 µM | [17] > 100 µM | [8] > 100 µM | [9] > 100 µM | [10] > 100 µM | [11] > 100 µM | [12] > 100 µM | [13] > 100 µM | [14] > 100 µM | [15] > 100 µM | [18] > 100 µM

CCc1cccc(C)c1NC(C)=O
inactive: [1] > 100 µM | [2] > 100 µM | [3] > 100 µM | [16] > 100 µM | [4] > 100 µM | [5] > 100 µM | [6] > 100 µM | [8] > 100 µM | [9] > 100 µM | [10] > 100 µM | [12] > 100 µM | [13] > 100 µM | [14] > 100 µM | [15] > 100 µM | [18] > 100 µM

O=C(O)/C(Cl)=C(Cl)/C=N/NC(=O)c1cc2ccccc2cc1O
inactive: [1] 7.69 µM | [2] 9.82 µM | [3] 6.71 µM | [16] 24.6 µM | [4] 14.5 µM | [5] 29.8 µM | [6] 17.9 µM | [7] 30.3 µM | [17] 38.5 µM | [8] 18 µM | [9] 19.1 µM | [10] 13.9 µM | [11] 7.66 µM | [12] 29.6 µM | [13] 19.3 µM | [15] 35.5 µM | [18] 49.2 µM
